Data published in patent publication US10301320B2, “Compositions and methods of modulating 15-PGDH activity” (CASE WESTERN RESERVE UNIVERSITY, priority 2012, dated 2019).

Experiments:
[1] = system: V9m reporter cell line expressing a 15-PGDH luciferase fusion construct; test: 15-PGDH-luciferase fusion gene reporter induction, V9m cell line; assay type: cell-based; conditions: […], % increased luciferase activity over basal level
Method in brief: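 Colon cancer reporter lines were treated with compound at 2.5 uM or 7.5 uM. Luciferase activity is expressed as % increase over basal level in DMSO vehicle-treated cells, where 100 means a doubling.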

[2] = system: 15-PGDH-luciferase fusion reporter in V9m, LS174T and V503 cell lines; test: 15-PGDH-luciferase fusion gene reporter induction in three colon cancer cell lines (stated jointly); assay type: cell-based
[3] = system: A549 cells; test: PGE2 levels in medium of IL1-beta stimulated A549 cells; assay type: cell-based
[4] = system: A549 cells; test: Cellular toxicity on A549 cells (CellTiter-Glo, cell numbers); assay type: cell-based
Experimental: Time to inhibition refers to the time needed to inhibit the generation of NADH by 15-PGDH from the moment with drug is added into the reaction mix. Delta™ refers to the shift in melting temperature of recombinant 15-PGDH in the presence of drug (with cofactor NADH also present). Concentration of Full Cell Line Reporter Induction refers to the concentration of drug that needs to be added to reporter cell line to achieve maximal induction of the 15-PGDH-luciferase gene fusion reporter cassette, as measured by luciferase assays. Hepatocyte stability refers to the half-life of compound in the presence of hepatocytes in culture. Toxicity refers to the concentration of compound needed to decrease cell numbers in a cell culture assay.
FIGS. 38(A-C) show assays of cellular toxicity on A549 cells at 24 hours of 15-PGDH inhibitors as assayed by CellTiter-Glo measurement.
FIGS. 84(A-C) show at left (84A) activity in lowering PGE2 levels in media of A549 cells that are stimulated to produce PGE2 by treatment with IL1-beta.

[5] = system: C57BL/6J mice; test: Survival after whole body irradiation; assay type: in vivo
[6] = system: C57BL/6J and FVB mice; test: Liver regeneration after partial hepatectomy; assay type: in vivo
[7] = system: C57BL/6J mice; test: Survival following acetaminophen (Tylenol) overdose; assay type: in vivo; conditions: for Number of mice surviving: Table 10, first dose immediately after Tylenol;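 as to all read-outs here: control mice received vehicle only, given once or twice per day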

CCCC[S+]([O-])c1sc2nc(-c3cccs3)cc(-c3ccccc3)c2c1N (centres unmarked) [SW033291, 2-(butylsulfinyl)-4-phenyl-6-(thiophen-2-yl)thieno[2,3-b]pyridin-3-amine]
V9M reporter activity ([…]) [1]: 93.16%
V9M reporter activity ([…]) ([1]; 100 = doubling): 98.24%
Induction of 15-PGDH-luciferase reporter, in words [2]: increase luciferase activity
PGE2 levels in the medium, ranking ([3]; 100 nM drug, 15-PGDH inhibitors): next highest level of PGE2
Effect on PGE2 levels in medium, in words ([3]; IL1-beta stimulated A549 cells): clear inhibition of 15-PGDH activity
PGE2 levels achieved ([3]; IL-1β 16 h, compound 8 h, highest level of titration): 3000 pg/mL
Toxicity, CellTiter-Glo ([4]; 24 hours, up to 10 uM in FIG. 38): No effect on CellTitre-Glo levels
Toxicity ([4]; concentration needed to decrease cell numbers in a cell culture assay): >10 µM
Survival longer than vehicle control ([5]; 11 Gy, 5 mg/kg IP daily for 7 doses): 48 h
Survival longer than vehicle control, on average ([5]; 11 Gy, any of the dosing schedules): 1 to 2 days
Number of mice surviving ([5]; Table 7, 7 Gy, Day 5): 3
Number of mice surviving ([5]; Table 7, 7 Gy, Day 6): 3
Number of mice surviving ([5]; Table 7, 7 Gy, Day 7): 3
Number of mice surviving ([5]; Table 7, 7 Gy, Day 8): 3
Number of mice surviving ([5]; Table 7, 7 Gy, Day 9): 3
Number of mice surviving ([5]; Table 7, 7 Gy, Day 10): 3
Number of mice surviving ([5]; Table 7, 7 Gy, Day 11): 3
Number of mice surviving ([5]; Table 7, 7 Gy, Day 12): 3
Number of mice surviving ([5]; Table 7, 7 Gy, Day 13): 3
Number of mice surviving ([5]; Table 7, 7 Gy, Day 14): 3
Number of mice surviving ([5]; Table 7, 7 Gy, Day 15): 3
Condition of surviving mice ([5]; Table 7, 7 Gy, Day 25 (Looks Healthy)): Healthy
Number of mice surviving ([5]; Table 7, 9 Gy, Day 5): 3
Number of mice surviving ([5]; Table 7, 9 Gy, Day 6): 3
Number of mice surviving ([5]; Table 7, 9 Gy, Day 7): 3
Number of mice surviving ([5]; Table 7, 9 Gy, Day 8): 3
Number of mice surviving ([5]; Table 7, 9 Gy, Day 9): 3
Number of mice surviving ([5]; Table 7, 9 Gy, Day 10): 3
Number of mice surviving ([5]; Table 7, 9 Gy, Day 11): 3
Number of mice surviving ([5]; Table 7, 9 Gy, Day 12): 2
Number of mice surviving ([5]; Table 7, 9 Gy, Day 13): 2
Number of mice surviving ([5]; Table 7, 9 Gy, Day 14): 1
Number of mice surviving ([5]; Table 7, 9 Gy, Day 15): 0
Number of mice surviving ([5]; Table 7, 11 Gy, Day 5): 3
Number of mice surviving ([5]; Table 7, 11 Gy, Day 6): 3
Number of mice surviving ([5]; Table 7, 11 Gy, Day 7): 3
Number of mice surviving ([5]; Table 7, 11 Gy, Day 8): 3
Number of mice surviving ([5]; Table 7, 11 Gy, Day 9): 2
Number of mice surviving ([5]; Table 7, 11 Gy, Day 10): 0
Number of mice surviving ([5]; Table 8, 11 Gy, 1 dose daily for 7 days, Day 5): 3
Number of mice surviving ([5]; Table 8, 11 Gy, 1 dose daily for 7 days, Day 6): 3
Number of mice surviving ([5]; Table 8, 11 Gy, 1 dose daily for 7 days, Day 7): 3
Number of mice surviving ([5]; Table 8, 11 Gy, 1 dose daily for 7 days, Day 8): 2
Number of mice surviving ([5]; Table 8, 11 Gy, 1 dose daily for 7 days, Day 9): 1
Number of mice surviving ([5]; Table 8, 11 Gy, 1 dose daily for 7 days, Day 10): 0
Number of mice surviving ([5]; Table 8, 11 Gy, 1 dose daily, continuous every day, Day 5): 3
Number of mice surviving ([5]; Table 8, 11 Gy, 1 dose daily, continuous every day, Day 6): 3
Number of mice surviving ([5]; Table 8, 11 Gy, 1 dose daily, continuous every day, Day 7): 3
Number of mice surviving ([5]; Table 8, 11 Gy, 1 dose daily, continuous every day, Day 8): 3
Number of mice surviving ([5]; Table 8, 11 Gy, 1 dose daily, continuous every day, Day 9): 2
Number of mice surviving ([5]; Table 8, 11 Gy, 1 dose daily, continuous every day, Day 10): 0
Number of mice surviving ([5]; Table 8, 11 Gy, 7 days, 2 dose daily, Day 5): 3
Number of mice surviving ([5]; Table 8, 11 Gy, 7 days, 2 dose daily, Day 6): 3
Number of mice surviving ([5]; Table 8, 11 Gy, 7 days, 2 dose daily, Day 7): 3
Number of mice surviving ([5]; Table 8, 11 Gy, 7 days, 2 dose daily, Day 8): 3
Number of mice surviving ([5]; Table 8, 11 Gy, 7 days, 2 dose daily, Day 9): 2
Number of mice surviving ([5]; Table 8, 11 Gy, 7 days, 2 dose daily, Day 10): 0
Hepatic mitosis, in words ([6]; C57BL/6J, 5 mg/kg IP daily): significantly increased hepatic mitosis versus controls on days 3 and 4
Serum ALT levels ([6]; one mouse, 5 mg/kg IP twice daily): lower
BrdU positive cells in liver, in words ([6]; post-operative day 2): clear increase in numbers of BrdU positive cells
Mice surviving at 120 hours ([7]; 5 mg/kg IP bid beginning 3 hours prior to acetaminophen, 6 doses): 3 of 6
Mice surviving at 120 hours ([7]; 5 mg/kg IP bid beginning 48 hours prior to acetaminophen, 9 doses): 10 of 12
Number of mice surviving ([7]; 1 dose daily, 16 hr): 6
Number of mice surviving ([7]; 1 dose daily, 24 hrs): 6
Number of mice surviving ([7]; 2 dose daily, 16 hr): 6
Number of mice surviving ([7]; 2 dose daily, 24 hrs): 6
Number of mice surviving ([7]; 2 dose daily, 48 hrs): 3
Number of mice surviving ([7]; 2 dose daily, 64 hrs): 3
Number of mice surviving ([7]; 2 dose daily, 72 hrs): 3
Number of mice surviving ([7]; 2 dose daily, 88 hr): 3
Number of mice surviving ([7]; 2 dose daily, 96 hr): 3
Number of mice surviving ([7]; 2 dose daily, 112 hr): 3
Number of mice surviving ([7]; 2 dose daily, 120 hr): 3
Survival (number of mice) ([7]; Table 11, bid beginning 48 hours prior to acetaminophen, 16 hr): 12
Survival (number of mice) ([7]; Table 11, bid beginning 48 hours prior to acetaminophen, 24 hrs): 12
Survival (number of mice) ([7]; Table 11, bid beginning 48 hours prior to acetaminophen, 40 hrs): 11
Survival (number of mice) ([7]; Table 11, bid beginning 48 hours prior to acetaminophen, 48 hrs): 10
Survival (number of mice) ([7]; Table 11, bid beginning 48 hours prior to acetaminophen, 64 hrs): 10
Survival (number of mice) ([7]; Table 11, bid beginning 48 hours prior to acetaminophen, 72 hrs): 10
Survival (number of mice) ([7]; Table 11, bid beginning 48 hours prior to acetaminophen, 88 hr): 10
Survival (number of mice) ([7]; Table 11, bid beginning 48 hours prior to acetaminophen, 96 hr): 10
Survival (number of mice) ([7]; Table 11, bid beginning 48 hours prior to acetaminophen, 112 hr): 10
Survival (number of mice) ([7]; Table 11, bid beginning 48 hours prior to acetaminophen, 120 hr): 10
Survival (number of mice) ([7]; Table 12, bid beginning 3 hours prior to acetaminophen, 16 hr): 6
Survival (number of mice) ([7]; Table 12, bid beginning 3 hours prior to acetaminophen, 24 hrs): 5
Survival (number of mice) ([7]; Table 12, bid beginning 3 hours prior to acetaminophen, 48 hrs): 3
Survival (number of mice) ([7]; Table 12, bid beginning 3 hours prior to acetaminophen, 64 hrs): 3
Survival (number of mice) ([7]; Table 12, bid beginning 3 hours prior to acetaminophen, 72 hrs): 3
Survival (number of mice) ([7]; Table 12, bid beginning 3 hours prior to acetaminophen, 88 hr): 3
Survival (number of mice) ([7]; Table 12, bid beginning 3 hours prior to acetaminophen, 96 hr): 3
Survival (number of mice) ([7]; Table 12, bid beginning 3 hours prior to acetaminophen, 112 hr): 3
Survival (number of mice) ([7]; Table 12, bid beginning 3 hours prior to acetaminophen, 120 hr): 3
